Test results taken from patent publication US12594349B2, “Compositions and methods for the targeting of PCSK9” (Scribe Therapeutics Inc., priority 2022, dated 2026).

System: human PCSK9 locus
Experiment: Secreted PCSK9 by ELISA in Huh7 cells transfected with mRNA and gRNA
Format: cell-based
Settings: for Percent reduction in PCSK9 secretion / Average percent reduction in PCSK9 secretion / Secreted PCSK9: Huh7 cells; for Percent reduction in PCSK9 secretion / Average percent reduction in PCSK9 secretion: LTRP5-ADD-ZIM3 mRNA; for Percent reduction in PCSK9 secretion: day 6, relative to non-targeting gRNA control; for Average percent reduction in PCSK9 secretion: day 6, averaged from the two doses; for Secreted PCSK9: 6 days post-transfection, normalized to total cell count
Experimental: To assess PCSK9 secretion, seeded Huh7 cells were transfected with mRNA encoding a catalytically-active CasX 676, dXR1, or LTRP5-ADD-ZIM3 and a gRNA with scaffold 316 and spacer targeting either the B2M or PCSK9 locus. Media supernatant was harvested at 6, 18, 36, and 87 days post-transfection to assess level of PCSK9 secretion by ELISA. Levels of PCSK9 secretion were normalized to total cell count. As an additional control, PCSK9 secretion was also measured in the media supernatant harvested from wells containing untreated, naïve cells.
The following three human hepatocyte cancer cell lines were used in this experiment: HepG2 cells, Hep3B cells, and Huh7 cells. ˜15,000 cells of each cell line were seeded per well; the next day, seeded cells were transfected with mRNA encoding a catalytically-active CasX 676, dXR1, or LTRP5-ADD-ZIM3 and a gRNA with scaffold 316 and spacer targeting either the B2M or PCSK9 locus (see Table 23 for specific spacers and sequences). Media supernatant was harvested at 4 days post-transfection to assess level of PCSK9 secretion by ELISA, and levels of PCSK9 secretion were normalized to total cell count and illustrated in FIGS. 11A-11C. Culturing of treated Huh7 cells continued, and media supernatant was harvested at 14 and 27 days post-transfection for measuring PCSK9 secretion by ELISA. As an additional experimental control, PCSK9 secretion was also measured in the media supernatant harvested from wells containing untreated, naïve cells.
To assess PCSK9 secretion, seeded Huh7 cells were co-transfected with mRNA encoding for LTRP5-ADD-ZIM3 and a gRNA with scaffold 316 and spacer targeting the PCSK9 locus using Lipofectamine™ 3000. Two doses of total RNA input at a 2:1 mass ratio of mRNA to gRNA were used for screening: 50 ng mRNA:25 ng gRNA and 25 ng mRNA:12.5 ng gRNA. Media supernatant was harvested at 6 days post-transfection to assess level of PCSK9 secretion by ELISA (Table 74). Levels of PCSK9 secretion were normalized to total cell count. As an additional control, PCSK9 secretion was also measured in the media supernatant harvested from cells transfected with mRNA encoding for mScarlet.

[1] = LTRP5-ADD-ZIM3 mRNA + gRNA scaffold 316, 25 ng mRNA:12.5 ng gRNA
[2] = LTRP5-ADD-ZIM3 mRNA + gRNA scaffold 316, 50 ng mRNA:25 ng gRNA

| Substance | Percent reduction in PCSK9 secretion (25 ng mRNA:12.5 ng gRNA) | Percent reduction in PCSK9 secretion (50 ng mRNA:25 ng gRNA) | Average percent reduction in PCSK9 secretion | Secreted PCSK9 [1] | Secreted PCSK9 [2] | average reduction in secreted PCSK9 levels (Huh7, LTRP5-ADD-ZIM3 mRNA + gRNA scaffold 316 v1, 6 days post-transfection, averaged from two doses, relative to non-targeting gRNA) |
| --- | --- | --- | --- | --- | --- | --- |
| Non-targeting (guide CGAGACGTAATTACGTCTCG; chemistry not given here) | 0% | 0% | 0% | – | – | – |
| TG-06-002 (guide ACCGCUGCGCCAAGGUGCGG; listed as RNA, chemistry not given here) | – | 0.4% | – | – | – | – |
| TG-06-004 (guide GCCAGGCCGUCCUCCUCGGA; listed as RNA, chemistry not given here) | 2.54% | 33.35% | 15.41% | 73.05 ng/mL | 54.83 ng/mL | – |
| TG-06-005 (guide GUGCUCGGGUGCUUCGGCCA; listed as RNA, chemistry not given here) | 7.19% | 18.47% | 5.64% | 76.37 ng/mL | 67.08 ng/mL | – |
| TG-06-117 (guide ACUUUGUUUGCAAAGACCUC; listed as RNA, chemistry not given here) | 37.62% | 16.16% | 10.73% | 98.05 ng/mL | 68.98 ng/mL | – |
| TG-06-118 (guide GAGUGAAAUGGCCUGCUCUG; listed as RNA, chemistry not given here) | 23.11% | 56.86% | 39.99% | 54.78 ng/mL | 35.5 ng/mL | – |
| TG-06-119 (guide GAGCAGGCCAUUUCACUCGG; listed as RNA, chemistry not given here) | 18.66% | 14.47% | 2.1% | 84.54 ng/mL | 70.37 ng/mL | – |
| TG-06-120 (guide CUCGGAAUCUGCUGUGCAUC; listed as RNA, chemistry not given here) | 32.67% | 73.95% | 53.31% | 47.97 ng/mL | 21.43 ng/mL | – |
| TG-06-121 (guide GGAAGGGCUGUCGAUACUGG; listed as RNA, chemistry not given here) | 47.89% | 65.57% | 56.73% | 37.13 ng/mL | 28.33 ng/mL | – |
| TG-06-122 (guide CCUUUGUUUCUUCCCAGUAU; listed as RNA, chemistry not given here) | 20.79% | 3.54% | 8.63% | 86.06 ng/mL | 79.36 ng/mL | – |
| TG-06-123 (guide UCCCAGUAUCGACAGCCCUU; listed as RNA, chemistry not given here) | 27.97% | 62.95% | 45.46% | 51.32 ng/mL | 30.49 ng/mL | – |
| TG-06-124 (guide CAGUAUCGACAGCCCUUCCA; listed as RNA, chemistry not given here) | 57.06% | 79.9% | 68.48% | 30.59 ng/mL | 16.54 ng/mL | – |
| TG-06-125 (guide AGAAAGAGCAAGCCUCAUGU; listed as RNA, chemistry not given here) | 35.28% | 69.7% | 52.49% | 46.11 ng/mL | 24.93 ng/mL | – |
| TG-06-126 (guide CCUUUUCAUCCUCCUGCCUG; listed as RNA, chemistry not given here) | 37.09% | 71.46% | 54.27% | 44.82 ng/mL | 23.48 ng/mL | – |
| TG-06-127 (guide UCCUCCUGCCUGGUACACAA; listed as RNA, chemistry not given here) | 31.08% | 72.56% | 51.82% | 49.1 ng/mL | 22.57 ng/mL | – |
| TG-06-128 (guide AGAAAUCAACUGGACAAGCA; listed as RNA, chemistry not given here) | 12.57% | 48.7% | 30.63% | 62.29 ng/mL | 42.21 ng/mL | – |
| TG-06-129 (guide UUUUACACACCAUGUUCAAG; listed as RNA, chemistry not given here) | 27.47% | 27.16% | 0.16% | 90.82 ng/mL | 59.93 ng/mL | – |
| TG-06-131 (guide UGAACAUGGUGUGUAAAAGG; listed as RNA, chemistry not given here) | 18.74% | 65.48% | 42.11% | 57.89 ng/mL | 28.4 ng/mL | – |
| TG-06-132 (guide AGAAGAUUCAAUUUGCAAAG; listed as RNA, chemistry not given here) | 5.29% | 31.11% | 12.91% | 75.01 ng/mL | 56.68 ng/mL | – |
| TG-06-134 (guide GAAUUCUAUGGUAGGCACAA; listed as RNA, chemistry not given here) | 19.37% | 46.77% | 33.07% | 57.45 ng/mL | 43.79 ng/mL | – |
| TG-06-135 (guide GGAAAGCUGAGCUUGUGCCU; listed as RNA, chemistry not given here) | 37.42% | 68.82% | 53.12% | 44.59 ng/mL | 25.66 ng/mL | – |
| TG-06-139 (guide AGGAGCAGCUAGUUGGUAAG; listed as RNA, chemistry not given here) | 64.28% | 81.73% | 73.01% | 25.45 ng/mL | 15.03 ng/mL | – |
| TG-06-140 (guide AAACUUAGCCUGGACCCCCU; listed as RNA, chemistry not given here) | 15.87% | 25.04% | 20.45% | 59.94 ng/mL | 61.68 ng/mL | – |
| TG-06-141 (guide ACUGGCCUUAACCUGGCAGC; listed as RNA, chemistry not given here) | 82.34% | 83.16% | 82.75% | 12.58 ng/mL | 13.86 ng/mL | 82.75% |
| TG-06-142 (guide UUCCACUGGCCUUAACCUGG; listed as RNA, chemistry not given here) | 61.73% | 62.48% | 62.1% | 27.27 ng/mL | 30.87 ng/mL | – |
